Tests used:
[1] = test system: TS/A tumors; test: Growth of TS/A tumors implanted s.c. into mice; type: in vivo
Experimental: FIG. 2. OCDO is a tumor promoter in vitro and in vivo and its inhibition contributes to the anti-tumor effects of Tam and DDA. (A, B) Histograms representing the effect of OCDO or 17β-estrogen (E2) on MCF7 (A) and TS/A (B) cell proliferation after 24 h treatment using a colorimetric immunoassay measuring BrDU incorporation in DNA (C, D) Histogram representing the effect of OCDO on MCF7 (C) and TS/A (D) cell invasion. Data are the mean of three separate experiments (±s.e.m), *P<0.05, **P<0.01, ***P<0.001 (Student's t-test). (E, F) Mice were implanted s.c. with MCF7 (E) or TS/A (F) cells and animals (8 per group) were treated s.c. every day starting on the day of implantation with either the solvent vehicle or OCDO (16 μg/kg for MCF7 or 50 μg/kg for TS/A). Animals were monitored for tumour growth twice a week. The data are representative of three independent experiments. The mean tumor volume±s.e.m is shown, *P<0.05, **P<0.01, ***P<0.001 (analysis of variance (ANOVA), Dunnett's post test). (G) Mean (±s.e.m) of Ki67 positive cell number determined from IHC staining of MCF7 tumor sections from (E), n=8, *P<0.05 (Student's t-test) using HistoQuant, Pannoramic Viewer (3DHistech). (H) Representative Ki67 staining of TS/A tumor sections from (F) showing increased staining in OCDO-treated tumor compared with control-treated tumor. (I, J, K). Murine E0771(I), or human MDA-MB231 (J) or MDA-MB468 (K) cells implanted s.c. into mice (8 per group) and animals were treated s.c. with either the solvent vehicle or OCDO (16 μg/kg for MDA-MB-231 and MDA-MB-468 or 50 μg/kg for E0771). The data are representative of two independent experiments. Statistical analysis was performed as in E and F. (L) Mice were implanted s.c. with TS/A cells and animals (8 per group) were treated s.c. every day with either the solvent vehicle, OCDO (50 μg/kg), Tam (56 mg/kg), DDA (20 mg/kg) or the combination of Tam (56 mg/kg) +OCDO (50 μg/kg) or DDA (20 mg/kg)+OCDO (50 μg/kg). The data are representative of three independent experiments. Statistical analysis was performed as in E and F.
Exponentially growing MCF7, ShMCF7, E0771, MDA-MB231, MDA-MB468 and TS/A cells were collected, washed twice in PBS and resuspended in PBS. TS/A and E9771 tumours were prepared by subcutaneous transplantation of 35×10^3 cells or 3×10^5 cells respectively in 100 μl PBS into the flank of BALB/c or C57B16 mice. For other tumors, 5 to 10×10^6 cells in 200 μl PBS/matrigel (1/1) were injected into the flank of NMRI nude mice. Animals were treated as indicated in the legends. Animals were examined daily, and body weights were measured twice per week. In all the experiments, the tumor volume was determined by direct measurement with a caliper and was calculated using the formula (width^2×length)/2. Tumors were either frozen in liquid nitrogen or fixed in 10% neutral-buffered formalin and embedded in paraffin for immunohistochemical analysis. Paraffin sections were stained with haematoxylin and eosin for histomorphological analyses. Immunohistochemical staining was done on paraffin-embedded tissue sections, using a specific Ki67 antibody (Dako).
We then assayed the anti-growth effect of Tam or DDA against TS/A tumors in the absence and presence of OCDO. As above, TS/A tumors implanted into immunocompetent mice were treated s.c. every day either with either the solvent vehicle (control), OCDO (50 μg/kg), Tam (56 mg/kg), DDA (20 mg/kg) or the combination of Tam (56 mg/kg)+OCDO (50 μg/kg) or DDA (20 mg/kg) +OCDO (50 μg/kg).

[2] = test system: E0771 cells; test: Growth of E0771 tumors implanted s.c. into mice; type: in vivo; settings: mouse E0771 tumors, OCDO 50 μg/kg s.c.
Experimental: FIG. 2. OCDO is a tumor promoter in vitro and in vivo and its inhibition contributes to the anti-tumor effects of Tam and DDA. (A, B) Histograms representing the effect of OCDO or 17β-estrogen (E2) on MCF7 (A) and TS/A (B) cell proliferation after 24 h treatment using a colorimetric immunoassay measuring BrDU incorporation in DNA (C, D) Histogram representing the effect of OCDO on MCF7 (C) and TS/A (D) cell invasion. Data are the mean of three separate experiments (±s.e.m), *P<0.05, **P<0.01, ***P<0.001 (Student's t-test). (E, F) Mice were implanted s.c. with MCF7 (E) or TS/A (F) cells and animals (8 per group) were treated s.c. every day starting on the day of implantation with either the solvent vehicle or OCDO (16 μg/kg for MCF7 or 50 μg/kg for TS/A). Animals were monitored for tumour growth twice a week. […] (G) Mean (±s.e.m) of Ki67 positive cell number determined from IHC staining of MCF7 tumor sections from (E), n=8, *P<0.05 (Student's t-test) using HistoQuant, Pannoramic Viewer (3DHistech). […]
Exponentially growing MCF7, ShMCF7, E0771, MDA-MB231, MDA-MB468 and TS/A cells were collected, washed twice in PBS and resuspended in PBS. […] Animals were examined daily, and body weights were measured twice per week. In all the experiments, the tumor volume was determined by direct measurement with a caliper and was calculated using the formula (width^2×length)/2. […]

[3] = test system: shHSD2 MCF7 cells; test: Clonogenic assay of shHSD2 MCF7 cells; type: cell-based, human; settings: OCDO 1 μM
Experimental: FIG. 7. Knock-down of 11βHSD2 decreases cell proliferation, invasion and survival in MCF7 cells as well as tumor growth and OCDO reverses these effects. shC or shHSD2 MCF7 cells were analyzed as followed: (A) The proliferation of sh-C or shHSD2 cells treated or not with OCDO 5 μM 24 h was measured using quantification of DNA BrDU incorporation as described in FIG. 2A. (B) The proliferation of sh-C or shHSD2 cells treated or not with increasing concentration of cortisone for 24 h was measured as in (A). (C) The invasiveness of sh-C or shHSD2 cells treated or not with OCDO 5 μM for 72 h was assayed using matrigel-coated filters. (D) the formation of colony by sh-C or shHSD2 cells treated or not with OCDO 1 μM was quantified as described in FIG. 6F. […] Animals were monitored for tumor growth twice a week. […] (F) Mean (±s.e.m) of Ki67 positive cell number determined from IHC staining of shC or shHSD2 MCF7 tumor sections from (E), n=8, *P<0.05 (Student's t-test) using HistoQuant, Pannoramic Viewer (3DHistech).
Cells, MCF7-sh11bHSD2 (5×10^3), MCF7-shC (5×10^3) or TSA (3×10^3) were seeded in duplicate in […] diameter dish. […] At day 10, colonies were fixed with 3.7% PFA, stained with an aqueous crystal violet solution (0.05%) and the number of colonies was counted.

Compound: CC(C)CCC[C@@H](C)[C@H]1CC[C@H]2[C@@H]3CC(=O)[C@@]4(O)C[C@@H](O)CC[C@]4(C)[C@H]3CC[C@]12C [OCDO, 6-oxo-cholestan-3β,5α-diol]
- tumor growth compared with the control group ([1]; TS/A tumors in immunocompetent mice, OCDO 50 μg/kg s.c. every day): significantly increased
- proliferative marker Ki67 in tumors compared with control-treated tumors ([1]; TS/A tumors, IHC): increased
- enhancement of TS/A tumor growth compared with the control group ([1]; after 13 days of treatment, OCDO 50 μg/kg s.c. every day, p<0.01): 140%
- tumor growth [2]: stimulates the growth
- effect on the inhibition of cell survival (colony formation) mediated by 11βHSD2 knock-down [3]: reversed the inhibition
